What was measured:
Type in all cases: cell-based, human
[1] = system: mTOR and phospho-mTOR; assay: Western blot of mTOR and phospho-mTOR after mTOR RNAi; conditions: SH-SY5Y and ATXN2-Q22/58 KI cells, 4 days post-transfection
Text: siRNAs. The siRNAs used in this study were: All Star Negative Control siRNA (Qiagen Inc., USA; Cat #1027280), human siATXN2 [Hs_ATXN2_2 (Qiagen Inc., USA; Cat #SI00308196)], human siSTAU1: 5′-CCUAUAACUACAACAUGAGdTdT-3′ (SEQ ID NO: 3), and simTOR: 5′-GAGCCUUGUUGAUCCUUAA-3′ (SEQ ID NO: 4). Staufen1 and mTOR siRNA oligonucleotides were synthesized by Invitrogen Inc., USA. The oligonucleotides were deprotected and the complementary strands were annealed.
(§1) For over-expression of recombinant proteins, SH-SY5Y cells were seeded on 100 mm or 6 well dishes and incubated overnight. The cells were then transfected with plasmid DNAs and harvested 48 hrs post-transfection and processed as two aliquots for protein and RNA analyses. For siRNA experiments, cells were transfected with siRNAs using lipofectamine 2000, and lymphoblastoid B cells (1×10^6) were electroporated with siRNAs using the Neon transfection system (Invitrogen Inc., USA) according to the manufacturer's protocol and seeded on 6 well plates.
(§2) Preparation of protein lysates and western blot analyses. […] Signals were detected by using the Immobilon Western Chemiluminescent HRP Substrate (Millipore Inc., USA; cat #WBKLSO100) according to the manufacturer's protocol. The intensity of proteins was determined by using the ImageJ software analyses system and the relative protein abundances were expressed as ratios to β-actin.

[2] = system: autophagic pathway proteins (mTOR, P-mTOR, p62, LC3-II); assay: Western blot of autophagic pathway proteins in SH-SY5Y and ATXN2-Q22/58 knock-in cells
Protocol: (§3) SH-SY5Y cells were cultured in standard DMEM with 10% FBS and 1X penicillin/streptomycin in 5% CO2. Transfection of STAU1 siRNA or STAU1 ASO was accomplished using Lipofectamine transfection reagent using standard conditions. Cells were harvested 3-5 days post transfection.
Protein extracts were prepared by suspending cell pellets in SDS-PAGE sample buffer (Laemmli sample buffer) followed by boiling for 5 min. Equal amount of the extracts were subjected to Western blot analysis to determine the steady-state levels of proteins using the indicated antibodies. Protein extracts were resolved by SDS-PAGE and transferred to Hybond P membranes (Amersham Bioscience Inc., USA). After blocking with 5% skim milk in 0.1% Tween 20/PBS, the membranes were incubated with primary antibodies in 5% skim milk in 0.1% Tween 20/PBS for 2 hrs at room temperature or overnight at 4° C. After several washes with 0.1% Tween 20/PBS, the membranes were incubated with the corresponding secondary antibodies conjugated with HRP in 5% skim milk in 0.1% Tween 20/PBS for 2 hrs at room temperature. Following three additional washes with 0.1% Tween 20/PBS, signals were detected by using the Immobilon Western Chemiluminescent HRP Substrate (Millipore Inc., USA; cat #WBKLSO100) according to the manufacturer's protocol. […] Secondary antibodies were horse anti-mouse IgG-HRP antibody (Vector laboratories, PI-2000), and goat anti-rabbit IgG-HRP antibody (Vector laboratories, PI-1000).
as §1
Preparation of protein lysates and western blot analyses. Cellular extracts were prepared by a single-step lysis method. […] Equal amounts of the extracts were used for western blot analyses. […] Only supernatants were used for western blotting. Protein extracts were resolved by SDS-PAGE and transferred to Hybond P membranes (Amersham Bioscience Inc., USA). After blocking with 5% skim milk in 0.1% Tween 20/PBS, the membranes were processed for immunostaining using corresponding primary and secondary antibodies. Signals were detected by using the Immobilon Western Chemiluminescent HRP Substrate (Millipore Inc., USA; cat #WBKLSO100) according to the manufacturer's protocol. The intensity of proteins was determined by using the ImageJ software analyses system and the relative protein abundances were expressed as ratios to β-actin.

[3] = system: Staufen1; assay: Western blot of Staufen1 in SH-SY5Y and ATXN2-Q22/58 knock-in cells; conditions: ATXN2-Q22/58 KI cells, RNAi
Protocol: as §3
Protein extracts were prepared by suspending cell pellets in SDS-PAGE sample buffer (Laemmli sample buffer) followed by boiling for 5 min. Equal amount of the extracts were subjected to Western blot analysis to determine the steady-state levels of proteins using the indicated antibodies. Protein extracts were resolved by SDS-PAGE and transferred to Hybond P membranes (Amersham Bioscience Inc., USA). After blocking with 5% skim milk in 0.1% Tween 20/PBS, the membranes were incubated with primary antibodies in 5% skim milk in 0.1% Tween 20/PBS for 2 hrs at room temperature or overnight at 4° C. After several washes with 0.1% Tween 20/PBS, the membranes were incubated with the corresponding secondary antibodies conjugated with HRP in 5% skim milk in 0.1% Tween 20/PBS for 2 hrs at room temperature. Following three additional washes with 0.1% Tween 20/PBS, signals were detected by using the Immobilon Western Chemiluminescent HRP Substrate (Millipore Inc., USA; cat #WBKLSO100) according to the manufacturer's protocol. The antibodies used included ATXN2 mAb [(1:3000), BD Biosciences Inc.; cat #611378], rabbit anti-Staufen antibody (Novus biologicals Inc., NBP1-33202), SQSTM1/p62 antibody (Cell signaling, #5114), LC3B Antibody (Novus biologicals Inc., NB100-2220), mTOR antibody (Cell signaling, #2972), Phospho-mTOR (Ser2448) antibody (Cell signaling #2971), β-Actin mAb conjugated with HRP [(1:10,000), Sigma Inc.; cat #A3858]. Secondary antibodies were horse anti-mouse IgG-HRP antibody (Vector laboratories, PI-2000), and goat anti-rabbit IgG-HRP antibody (Vector laboratories, PI-1000).
as §1, §2

Substance: 5′-GAGCCUUGUUGAUCCUUAA-3′ (listed as RNA, chemistry not given here; listed as Homo sapiens) [simTOR, mTOR siRNA synthesized by Invitrogen]
- mTOR and phospho-mTOR levels [1]: depletion
- autophagic pathway proteins ([2]; ATXN2-Q22/58 knock-in cells, RNAi transfection): improves autophagy marker proteins
- Staufen1 and autophagic pathway protein component levels in control cells ([2]; control SH-SY5Y cells, mTOR RNAi, 4 days post-transfection): without affecting those levels
- Staufen1 abundance [3]: reduced Staufen1

— patent US12409189B2, “STAUFEN1 agents and associated methods” (University of Utah Research Foundation, priority 2016, dated 2025)
